Assay type in all cases: functional
Test [1] relates to Bacillus subtilis. The experiment in a line: Antimicrobial activity against Bacillus subtilis harboring fmt with 295 to 639 base pair deletion mutation after 17 hrs by microtiter broth dilution method. A general note: Broth dilution looks for growth in wells or tubes with falling amounts of substance.
The subject of test [2] is Bacillus subtilis. The experiment in a line: Antimicrobial activity against Bacillus subtilis harboring fmt with deletion mutation at base pair 745 after 17 hrs by microtiter broth dilution method.
Test [3] relates to Bacillus subtilis. Kind of test: Antimicrobial activity against Bacillus subtilis harboring fmt with deletion mutation at base pair 119 after 17 hrs by microtiter broth dilution method.
For test [4], the system named is Bacillus subtilis. Kind of test: Antimicrobial activity against Bacillus subtilis harboring fmt with base pair insertion at position 745 after 17 hrs by microtiter broth dilution method.
For test [5], the system named is Bacillus subtilis. The experiment in a line: Antimicrobial activity against Bacillus subtilis harboring fmt AGA to TGA and R3stop mutation after 17 hrs by microtiter broth dilution method.
The subject of test [6] is Bacillus subtilis. The experiment in a line: Antimicrobial activity against Bacillus subtilis harboring fmt H108R mutant after 17 hrs by microtiter broth dilution method.
For test [7], the system named is Bacillus subtilis. Kind of test: Antimicrobial activity against Bacillus subtilis harboring fmt S110P mutant after 17 hrs by microtiter broth dilution method.
For test [8], the system named is Bacillus subtilis. The experiment in a line: Antimicrobial activity against Bacillus subtilis harboring fmt P113L mutant after 17 hrs by microtiter broth dilution method.
In test [9] the test system is Bacillus subtilis. Kind of test: Antimicrobial activity against Bacillus subtilis harboring fmt R116C mutant after 17 hrs by microtiter broth dilution method.
Test [10] has as its system Bacillus subtilis. Kind of test: Antimicrobial activity against Bacillus subtilis harboring fmt R116P mutant after 17 hrs by microtiter broth dilution method.
The subject of test [11] is Bacillus subtilis. Kind of test: Antimicrobial activity against Bacillus subtilis harboring fmt G118D mutant after 17 hrs by microtiter broth dilution method.
For test [12], the system named is Bacillus subtilis. Kind of test: Antimicrobial activity against Bacillus subtilis harboring fmt P120L mutant after 17 hrs by microtiter broth dilution method.
In test [13] the test system is Bacillus subtilis. Kind of test: Antimicrobial activity against Bacillus subtilis harboring folD S71Q, S72Q and L73P mutant after 17 hrs by microtiter broth dilution method.
Test [14] relates to Bacillus subtilis. Kind of test: Antimicrobial activity against Bacillus subtilis harboring folD E17Q mutant after 17 hrs by microtiter broth dilution method.
The subject of test [15] is Bacillus subtilis. Kind of test: Antimicrobial activity against Bacillus subtilis harboring folD T184M mutant after 17 hrs by microtiter broth dilution method.
For test [16], the system named is Bacillus subtilis. Kind of test: Antimicrobial activity against Bacillus subtilis harboring glyA with deletion mutation of base pair 661 to 663 after 17 hrs by microtiter broth dilution method.
Test [17] relates to Bacillus subtilis. Kind of test: Antimicrobial activity against Bacillus subtilis harboring folD with deletion mutation of base pair 507 to 518 after 17 hrs by microtiter broth dilution method.

≈ marks a conversion by molar mass, not a printed value.

Turning to `CCCCC[C@H](CC(=O)NO)C(=O)N[C@H](C(=O)N1CCC[C@H]1CO)C(C)C` [ACTINONIN], the MIC – broadly, the lowest concentration found to suppress growth – is above 512 µg/mL in the test with Bacillus subtilis [1]; 96 µg/mL (≈ 249 µM) against Bacillus subtilis [2]; 192 µg/mL (≈ 498 µM) against Bacillus subtilis [3]; 96 µg/mL (≈ 249 µM) in the test with Bacillus subtilis [4]; 192 µg/mL (≈ 498 µM) in the test on Bacillus subtilis [5]; above 512 µg/mL in the test with Bacillus subtilis [6]. The MIC against Bacillus subtilis [7] is above 512 µg/mL; against Bacillus subtilis [8], 96 µg/mL (≈ 249 µM); with Bacillus subtilis [9], 48 µg/mL (≈ 125 µM); against Bacillus subtilis [10] it was above 512 µg/mL; with Bacillus subtilis [11], above 512 µg/mL; in the test with Bacillus subtilis [12], above 512 µg/mL. Further, the MIC is above 512 µg/mL against Bacillus subtilis [13]; 192 µg/mL (≈ 498 µM) against Bacillus subtilis [14]; 192 µg/mL (≈ 498 µM) against Bacillus subtilis [15]; above 512 µg/mL against Bacillus subtilis [16]; above 512 µg/mL in the test with Bacillus subtilis [17].

For the origin of these results see ChEMBL document CHEMBL1671649, “Mutations in three distinct loci cause resistance to peptide deformylase inhibitors in Bacillus subtilis” (2009).
